Biological target: T1, RORγ LBD-GST tagged (Homo sapiens, UniProt P51449)
T1 construct: RORγ LBD-GST tagged (Cat No. RORC-114H, Creative Biomart); purchased Creative Biomart RORC-114H
T1 sequence (P51449 269-508 limits assumed): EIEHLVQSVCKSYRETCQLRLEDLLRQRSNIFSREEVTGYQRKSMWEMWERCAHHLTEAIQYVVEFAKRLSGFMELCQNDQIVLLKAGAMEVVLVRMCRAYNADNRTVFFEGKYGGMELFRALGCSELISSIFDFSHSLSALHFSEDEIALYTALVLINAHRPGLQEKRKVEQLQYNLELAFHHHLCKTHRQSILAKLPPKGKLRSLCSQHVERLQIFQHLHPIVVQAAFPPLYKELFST
Assay: LanthaScreen TR-FRET RORγ coactivator assay
Type: biochemical
Conditions: Fluorescein-D22 coactivator peptide, 1 hour room temperature
Text: LanthaScreen TR-FRET Retinoid-Related Orphan Receptor Gamma (RORγ) Coactivator Assay Materials and Reagents • 1. […] Fluorescein-D22 coactivator peptide (Cat No. PV4386, Invitrogen) • 3. LanthaScreen™ Tb anti-GST antibody (Cat No. PV3550, Invitrogen) • 4. TR-FRET coregulatory buffer D (Cat No, PV4420, Invitrogen) • 5. DTT (Cat No. P2325, Fisher) • 6. […] Tecan Infinite M1000 plate reader (Tecan) Experimental Procedure Prepare Complete TR-FRET Coregulator Buffer D by adding 1 M DTT to TR-FRET Coregulator Buffer D to the final concentration of 5 mM DTT. Make compound dilution in Complete TR-FRET Coregulator Buffer D. Highest dose is 3 μM, 7-folder dilution for total 7 doses. Add 10 μL to each well of a 384-well plate. For the negative and positive controls, add 10 μL of Complete TR-FRET Coregulator Buffer D. Prepare RORγ LBD using Complete TR-FRET Coregulator Buffer D. The final concentration of RORγ LBD is 25 ng/reaction. Add 5 μL RORγ LBD to all the wells of the 384-well assay plate except negative wells which adding 5 μL Complete TR-FRET Coregulator Buffer D. Prepare a solution containing 0.6 μM Fluorescein-D22 and 8 nM Tb anti-GST antibody using Complete TR-FRET Coregulator Buffer D. Add 5 μL to all wells of the 384-well assay plate. Briefly and gently mix the 384-well plate on a plate shaker and incubate at room temperature protected from light for 1 hour. The plate may be sealed with a cover to minimize evaporation. Read the plate at wavelengths of 520 nm and 495 nm on Tecan Infinite M1000. IC50 values were calculated using GraphPad Prism by plotting the logarithm of compounds concentration versus percent inhibition.

Structure (SMILES) | IC50 [µM]
O=S(=O)(CC1CC1)c1ccc(C(O)c2nc3c(Cl)c(-c4ccccc4F)c(Cl)cc3[nH]2)cc1 (stereo not shown) [Example 75, (4-((cyclopropylmethyl)sulfonyl)phenyl)(4,6-dichloro-5-(2-fluorophenyl)-1H-benzo[d]imidazol-2-yl)methanol] | 0.006
CCS(=O)(=O)c1ccc(Cc2nc3c(Cl)c(-c4ccccc4OC(F)(F)F)c(Cl)cc3[nH]2)c(F)c1 [Example 76, 4,6-dichloro-2-(4-(ethylsulfonyl)-2-fluorobenzyl)-5-(2-(trifluoromethoxy)phenyl)-1H-benzo[d]imidazole] | 0.387
CCS(=O)(=O)c1ccc(C(O)c2nc3c(Cl)c(-c4ccccc4C(F)(F)F)c(Cl)cc3[nH]2)c(F)c1 (stereo not shown) [Example 79, (4,6-dichloro-5-(2-(trifluoromethyl)phenyl)-1H-benzo[d]imidazol-2-yl)(4-(ethylsulfonyl)-2-fluorophenyl)methanol] | 0.048
O=S(=O)(CC1CC1)c1ccc(C(O)c2nc3c(Cl)c(-c4ccccc4OC(F)(F)F)c(Cl)cc3[nH]2)c(F)c1 (stereo not shown) [Example 82, (4-((cyclopropylmethyl)sulfonyl)-2-fluorophenyl)(4,6-dichloro-5-(2-(trifluoromethoxy)phenyl)-1H-benzo[d]imidazol-2-yl)methanol] | 0.046
CCS(=O)(=O)c1ccc(Cc2nc3c(Cl)c(-c4ccccc4OC(F)F)c(Cl)cc3[nH]2)c(F)c1 [Example 83, 4,6-dichloro-5-(2-(difluoromethoxy)phenyl)-2-(4-(ethylsulfonyl)-2-fluorobenzyl)-1H-benzo[d]imidazole] | 0.065
CCS(=O)(=O)c1ccc(C(O)c2nc3c(Cl)c(-c4ccccc4OC(F)F)c(Cl)cc3[nH]2)c(F)c1 (stereo not shown) [Example 85, (4,6-dichloro-5-(2-(difluoromethoxy)phenyl)-1H-benzo[d]imidazol-2-yl)(4-(ethylsulfonyl)-2-fluorophenyl)methanol] | 0.188
CCS(=O)(=O)c1ccc(C(CO)c2nc3c(Cl)c(-c4ccccc4OC(F)(F)F)c(Cl)cc3[nH]2)c(Cl)c1 (stereo not shown) [Example 87, 2-(2-chloro-4-(ethylsulfonyl)phenyl)-2-(4,6-dichloro-5-(2-(trifluoromethoxy)phenyl)-1H-benzo[d]imidazol-2-yl)ethanol] | 0.024
CCS(=O)(=O)c1ccc(C(O)c2nc3c(Cl)c(-c4ccccc4OC(F)(F)F)c(Cl)cc3[nH]2)c(Cl)c1 (stereo not shown) [Example 88, (2-chloro-4-(ethylsulfonyl)phenyl)(4,6-dichloro-5-(2-(trifluoromethoxy)phenyl)-1H-benzo[d]imidazol-2-yl)methanol] | 0.162
CCS(=O)(=O)c1ccc(Cc2nc3c(Cl)c(-c4ccccc4OC(F)F)c(Cl)cc3[nH]2)c(Cl)c1 [Example 89, 4,6-dichloro-2-(2-chloro-4-(ethylsulfonyl)benzyl)-5-(2-(difluoromethoxy)phenyl)-1H-benzo[d]imidazole] | 0.004
O=S(=O)(CC1CC1)c1ccc(Cc2nc3c(Cl)c(-c4ccccc4OC(F)(F)F)c(Cl)cc3[nH]2)c(Cl)c1 [Example 90, 4,6-dichloro-2-(2-chloro-4-((cyclopropylmethyl)sulfonyl)benzyl)-5-(2-(trifluoromethoxy)phenyl)-1H-benzo[d]imidazole] | 0.004
O=S(=O)(CC1CC1)c1ccc(C(CO)c2nc3c(Cl)c(-c4ccccc4OC(F)(F)F)c(Cl)cc3[nH]2)c(Cl)c1 (stereo not shown) [Example 91, 2-(2-chloro-4-((cyclopropylmethyl)sulfonyl)phenyl)-2-(4,6-dichloro-5-(2-(trifluoromethoxy)phenyl)-1H-benzo[d]imidazol-2-yl)ethanol] | 0.14
O=S(=O)(CC1CC1)c1ccc(C(O)c2nc3c(Cl)c(-c4ccccc4OC(F)(F)F)c(Cl)cc3[nH]2)c(Cl)c1 (stereo not shown) [Example 92, (2-chloro-4-((cyclopropylmethyl)sulfonyl)phenyl)(4,6-dichloro-5-(2-(trifluoromethoxy)phenyl)-1H-benzo[d]imidazol-2-yl)methanol] | 0.067
O=S(=O)(CC1CC1)c1ccc(Cc2nc3c(Cl)c(-c4ccccc4Cl)c(Cl)cc3[nH]2)cc1 [Example 93, 4,6-dichloro-5-(2-chlorophenyl)-2-(4-((cyclopropylmethyl)sulfonyl)benzyl)-1H-benzo[d]imidazole] | 0.075
O=S(=O)(CC1CC1)c1ccc(C(O)c2nc3c(Cl)c(-c4ccccc4Cl)c(Cl)cc3[nH]2)cc1 (stereo not shown) [Example 94, (4-((cyclopropylmethyl)sulfonyl)phenyl)(4,6-dichloro-5-(2-chlorophenyl)-1H-benzo[d]imidazol-2-yl)methanol] | 0.023
N#Cc1ccccc1-c1c(Cl)cc2[nH]c(Cc3ccc(S(=O)(=O)CC4CC4)cc3)nc2c1Cl [Example 95, 2-(4,6-dichloro-2-(4-((cyclopropylmethyl)sulfonyl)benzyl)-1H-benzo[d]imidazol-5-yl)benzonitrile] | 0.065
N#Cc1ccccc1-c1c(Cl)cc2[nH]c(C(CO)c3ccc(S(=O)(=O)CC4CC4)cc3)nc2c1Cl (stereo not shown) [Example 96, 2-(4,6-dichloro-2-(1-(4-((cyclopropylmethyl)sulfonyl)phenyl)-2-hydroxyethyl)-1H-benzo[d]imidazol-5-yl)benzonitrile] | 0.123
N#Cc1ccccc1-c1c(Cl)cc2[nH]c(C(O)c3ccc(S(=O)(=O)CC4CC4)cc3)nc2c1Cl (stereo not shown) [Example 97, 2-(4,6-dichloro-2-((4-((cyclopropylmethyl)sulfonyl)phenyl)(hydroxy)methyl)-1H-benzo[d]imidazol-5-yl)benzonitrile] | 0.001
O=S(=O)(CC1CC1)c1ccc(Cc2nc3c(Cl)c(-c4ccccc4OC(F)F)c(Cl)cc3[nH]2)c(F)c1 [Example 98, 4,6-dichloro-2-(4-((cyclopropylmethyl)sulfonyl)-2-fluorobenzyl)-5-(2-(difluoromethoxy)phenyl)-1H-benzo[d]imidazole] | 0.007
CS(=O)(=O)c1ccc(Cc2nc3c(Cl)c(-c4ccccc4OC(F)(F)F)c(Cl)cc3[nH]2)c(Cl)c1 [Example 101, 4,6-dichloro-2-(2-chloro-4-(methylsulfonyl)benzyl)-5-(2-(trifluoromethoxy)phenyl)-1H-benzo[d]imidazole] | 0.082
CS(=O)(=O)c1ccc(C(CO)c2nc3c(Cl)c(-c4ccccc4OC(F)(F)F)c(Cl)cc3[nH]2)c(Cl)c1 (stereo not shown) [Example 102, 2-(2-chloro-4-(methylsulfonyl)phenyl)-2-(4,6-dichloro-5-(2-(trifluoromethoxy)phenyl)-1H-benzo[d]imidazol-2-yl)ethanol] | 0.062
CS(=O)(=O)c1ccc(C(O)c2nc3c(Cl)c(-c4ccccc4OC(F)(F)F)c(Cl)cc3[nH]2)c(Cl)c1 (stereo not shown) [Example 103, (2-chloro-4-(methylsulfonyl)phenyl)(4,6-dichloro-5-(2-(trifluoromethoxy)phenyl)-1H-benzo[d]imidazol-2-yl)methanol] | 0.158
CC(C)S(=O)(=O)c1ccc(Cc2nc3c(Cl)c(-c4ccccc4OC(F)(F)F)c(Cl)cc3[nH]2)cc1 [Example 104] | 0.337
CC(C)S(=O)(=O)c1ccc(C(O)c2nc3c(Cl)c(-c4ccccc4OC(F)(F)F)c(Cl)cc3[nH]2)cc1 (stereo not shown) [Example 106, (4-((iso-propyl)sulfonyl)phenyl)(4,6-dichloro-5-(2-(trifluoromethoxy)phenyl)-1H-benzo[d]imidazol-2-yl)methanol] | 0.003
CC(C)S(=O)(=O)c1ccc(C(CO)c2nc3c(Cl)c(-c4ccccc4C(F)(F)F)c(Cl)cc3[nH]2)cc1 (stereo not shown) [Example 107] | 0.055
CCS(=O)(=O)c1ccc(Cc2nc3c(F)c(-c4ccccc4OC(F)(F)F)c(F)cc3[nH]2)cc1 [Example 108, 2-(4-(ethylsulfonyl)benzyl)-4,6-difluoro-5-(2-(trifluoromethoxy)phenyl)-1H-benzo[d]imidazole] | 0.032
CCS(=O)(=O)c1ccc(C(CO)c2nc3c(F)c(-c4ccccc4OC(F)(F)F)c(F)cc3[nH]2)cc1 (stereo not shown) [Example 109, 2-(4,6-difluoro-5-(2-(trifluoromethoxy)phenyl)-1H-benzo[d]imidazol-2-yl)-2-(4-(ethylsulfonyl)phenyl)ethanol] | 1.04
CCS(=O)(=O)c1ccc(C(O)c2nc3c(F)c(-c4ccccc4OC(F)(F)F)c(F)cc3[nH]2)cc1 (stereo not shown) [Example 110, (4,6-difluoro-5-(2-(trifluoromethoxy)phenyl)-1H-benzo[d]imidazol-2-yl)(4-(ethylsulfonyl)phenyl)methanol] | 0.698
CCS(=O)(=O)c1ccc(Cc2nc3c(F)c(-c4ccccc4C(F)(F)F)c(F)cc3[nH]2)cc1 [Example 111, 2-(4-(ethylsulfonyl)benzyl)-4,6-difluoro-5-(2-(trifluoromethyl)phenyl)-1H-benzo[d]imidazole] | 0.06

From patent US12187684B2, “Benzimidazole derivatives as modulators of retinoid-related orphan receptor gamma (RORγ) and pharmaceutical use thereof” (Jiangsu Hengrui Medicine Co., Ltd., priority 2018, dated 2025)
